Experimental data from US4668674A, “(+)-6-chloro-5,10-dihy dro-5-[(1-methyl-4-piperidinyl)-acetyl]-11H-dibenzo[b,][1,4]diazepin-11-o ne, the isolation thereof and its use as a pharmaceutical material” (Dr. Karl Thomae GmbH, priority 1985, dated 1987).

How the values were obtained:
[1] = ambient temperature; Arzneim.-Forsch./Drug Res. 34(II), 8, 849-859 (1984); cited from earlier work
Racemisation Test = assay type: physicochemical
[2] = system: volume and total acid secretion; assay: Effect on rats after ligature of the pylorus (gastric juice volume and total acid); assay type: in vivo, Male Wistar rats; settings: rat, i.v.; for ED50 value: given immediately before pylorus ligature, 2 hours, 120 min
Procedure: Effect on rats after ligature of the pylorus
Male Wistar rats (weighing between 100 and 125 g) which had fasted for 24 hours but had free access to water was used. The rats were divided up into groups of 10 animals. The rats were anaesthetised with ether and the abdominal cavity was opened up by longitudinal cutting and the pylorus was tied off. Before ligature of the pylorus, the substances dissolved in saline solution were administered intravenously in metered doses (0.1 ml/100 g of body weight), the intravenous administration was carried out immediately before ligature of the pylorus; control animals were given only the saline solution. Two hours after the ligature the animals were killed and the stomachs were carefully removed. The stomach contents were collected and centrifuged for 15 minutes at 4000 rpm, then the supernatant was separated off in order to determine the volume of gastric juices. Using a pH measuring apparatus (I.T.T. Radiometer PHM 62) the acidity was measured by titration to pH 7 of 1 ml samples of the gastric juices.
The total acid was calculated from the product of the measured volume and acidity (microequivalent.ml) and expressed as microequivalents over 2 or 4 hours. The data obtained from the individual pretreated rats were compared with the average values obtained from the control groups and expressed as the percentage deviation. The percentage values were transformed into probits and subjected to linear regression analysis in order to determine the ED50 values for volume and total acid secretion, whilst observing 95% confidence limits.

[3] = system: secretion of gastric acid; assay: Anti-ulcerative effect, inhibition of gastric acid secretion and effect on other gastro-intestinal diseases (general statement); assay type: in vivo; settings: for physiological/biological effectiveness: statement in words
[4] = pH 1 to 9, water, glycol, melt, up to 150° C., fifteen minutes

CN1CCN(CC(=O)N2c3ccccc3C(=O)Nc3cccnc32)CC1 [pirenzepine]
interconversion of enantiomeric forms [1]: rapidly interconvert

CN1CCC(CC(=O)N2c3ccccc3C(=O)Nc3cccc(Cl)c32)CC1 [(+) form, (+)-6-Chloro-5,10-dihydro-5-[(1-methyl-4-piperidinyl)-acetyl]-11H-dibenzo[b,e][1,4]diazepin-11-one]
formation of (-) enantiomer (HPLC) (Racemisation Test; [4]): no (-) enantiomer had formed | optical rotation on heating (Racemisation Test; [4]): remained constant | racemisation (Racemisation Test; [4]): no racemisation | ED50 value [2]: 0.18 mg/kg | activity in the pylorus ligature experiment ([2]; conclusion in words): the form which carries the activity | dosage needed to achieve the same results, relative to the mixture of enantiomers ([3]; compared with the mixture of enantiomers): approximately only half the dosage | effect on various other diseases of the gastro-intestinal tract ([3]; particularly low bowel distress symptoms): favourable effect on various other diseases of the gastro-intestinal tract | physiological/biological effectiveness [3]: physiologically highly effective | physiological/biological effectiveness ([3]; listed as Ia): biologically effective form | anti-ulcerative effect ([3]; unlike the (-) form): Powerful anti-ulcerative effect | effect on the secretion of gastric acid ([3]; unlike the (-) form): inhibitory effect on the secretion of gastric acid

CN1CCC(CC(=O)N2c3ccccc3C(=O)Nc3cccc(Cl)c32)CC1 [(-) form]
deviation from the average values of untreated control groups ([2]; 3 mg/kg): 1.6% | ED50 value [2]: > 3 mg/kg | quantity required to achieve the same results ([3]; (-) form, to achieve the same results): at least 50 times

CN1CCC(CC(=O)N2c3ccccc3C(=O)Nc3cccc(Cl)c32)CC1 [formula I, 6-chloro-5,10-dihydro-5-[(1-methyl-4-piperidinyl)-acetyl]-11H-dibenzo[b,e][1,4]diazepin-11-one]
stability of enantiomeric forms (Racemisation Test; ambient temperature): stable at ambient temperature
